Assay results as given in patent US20140221340A1 (KYOWA HAKKO KIRIN CO., LTD., priority 2011, published 2014).

Molecular target: T1, human CCR10 (Homo sapiens, UniProt P46092)
T1 construct: expressed in transfected cells; host or cells: KJMGER8 cell (cell line derived from Namalwa cell); expression induced with 10 nmol/L β-estradiol
T1 sequence (P46092 1-362): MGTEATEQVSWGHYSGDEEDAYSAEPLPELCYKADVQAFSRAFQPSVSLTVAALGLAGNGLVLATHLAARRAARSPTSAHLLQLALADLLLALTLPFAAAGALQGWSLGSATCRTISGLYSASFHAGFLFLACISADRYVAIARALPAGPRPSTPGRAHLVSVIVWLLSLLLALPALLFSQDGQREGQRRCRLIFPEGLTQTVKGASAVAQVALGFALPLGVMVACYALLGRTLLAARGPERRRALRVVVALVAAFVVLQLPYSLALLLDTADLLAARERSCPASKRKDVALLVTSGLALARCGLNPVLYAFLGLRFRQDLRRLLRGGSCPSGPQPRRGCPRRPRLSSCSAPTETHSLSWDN
Experiment: Calcium assay of human CCR10 (inhibition of CTACK-induced increase in intracellular calcium ion concentration in hCCR10G16 cells)
Format: cell-based
Settings: test compound 100 nmol/L, human recombinant CTACK, hCCR10G16 cells (KJMGER8/Namalwa-derived, Gα16 co-expressed), FLIPR or FDSS; for inhibition at 0.1 µM: read-out: Inhibitory rate (%) for an increase in calcium ion concentration
Protocol: A CCR10-inducible expression plasmid was produced according to a known method (“Analytical Biochemistry”, 2006, vol. 400, page 163). A DNA encoding human CCR10 was obtained by PCR. Using human chromosomal DNA (100 ng; manufactured by Clontech Laboratories, Inc.) as a template, a synthetic DNA having the sequences shown by SEQ ID NOs: 1 and 2 as a human CCR10 cDNA specific primer, and Pyrobest DNA Polymerase (manufactured by TAKARA SHUZO CO. LTD.) as an enzyme, a DNA encoding human CCR10 was obtained by PCR. As a buffer solution for PCR, the buffer solution attached to the enzyme was diluted 10-fold with deionized water and used. Using Thermal Cycler DNA Engine (manufactured by MJ Research), PCR was performed by 35 cycles of reactions composed of an incubation at 90° C. for 2 min, at 94° C. for 30 seconds, at an anneal temperature of 58° C. for 30 seconds, and at 72° C. for 1 min.
The amplified PCR fragment was cleaved with HindIII and NotI, then a human CCR10 DNA fragment was recovered by an agarose gel electrophoresis method. The fragment was incorporated in between the corresponding restriction enzyme sites (HindIII-NotI) of an inducible expression vector, whereby a human CCR10-inducible expression plasmid were prepared.
Using a primer specific to the sequence of the plasmid (synthetic DNA having the sequences shown by SEQ ID NOs: 3 and 4), the sequence of human CCR10 DNA region was determined. For the determination of the base sequence, DNA sequencer 377 (manufactured by PerkinElmer) and a reaction kit (ABI Prism (registered trade mark) BigDye (registered trade mark) Terminator Cycle Sequencing Ready Reaction kit: manufactured by Applied Biosystems) were used. The sequence of human CCR10 DNA matched with the sequence (NM_016602) registered in GenBank.
Cells for the detection of the signal from human CCR10 by a calcium assay were prepared. Human CCR10-inducible expressing cells whose host cell is KJMGER8 cell (cell line derived from Namalwa cell) were prepared according to a known method (“Analy Biochem”, 2006, vol. 400, page 163). Human CCR10-inducible expression plasmid produced above and Gα16 expression plasmid were co-transfected into KJMGER8 cell by an electroporation method (“Cytotechnology”, 1990, vol. 3, page 133), whereby a signal from human CCR10 could be detected by a calcium assay (hereinafter to be referred to as hCCR10G16 cell). Gα16 expression plasmid was produced by incorporating human Gα16 DNA into expression vector pAMoh (WO03/087366). Induced expression of human CCR10 was performed by cultivating hCCR10G16 cells in the presence of 10 nmol/L β-estradiol (manufactured by Sigma Ltd.) for 24 hr.
Cells expressing human CCR10 induced by the above-mentioned method were suspended in RPMI1640 medium and adjusted to cell density of 1.25×10^6 cells/mL. This mixture was dispensed to a 384 well clear bottom plate (manufactured by Corning Incorporated) at 20 μL/well, and these were incubated at 37° C. for several dozen minutes. A loading buffer prepared according to the protocol attached to FLIPR Calcium 3 assay kit (manufactured by Molecular Device) was dispensed to this plate at 20 μL/well, and the plate was incubated at 37° C. for 60 min. A 33 μmol/L DMSO solution of the test compound was diluted 37-fold with RPMI1640 medium and the resulting solution was added at 5 μL/well, and the mixture was incubated at 37° C. for 30 min. 300 nmol/L human recombinant CTACK (manufactured by R and D Systems) diluted with RPMI1640 medium containing 1 w/v % bovine serum albumin was added at 5 μL/well. Change of the intracellular calcium ion concentration for about 5 min after the addition was measured by FLIPR (manufactured by Molecular Device) or FDSS (manufactured by Hamamatsu Photonics K.K.). The difference between the maximum fluorescence intensity and the minimum fluorescence intensity for 5 min was calculated, and taken as the measurement value (maximum fluorescence intensity−minimum fluorescence intensity). […]

SMILES | inhibition at 0.1 µM | Inhibitory rate (%) for an increase in calcium ion concentration
CCNC(=O)NS(=O)(=O)c1cnn2c(Nc3cc(C)ccc3Cl)c(C(=O)N3CCC(c4ccc(F)cc4)CC3)cnc12 [a-14, 7-(2-Chloro-5-methylphenylamino)-N-(ethylcarbamoyl)-6-[4-(4-fluorophenyl)piperidine-1-carbonyl]pyrazolo[1,5-a]pyrimidine-3-sulfonamide] | > 100% | –
Cc1ccc(Cl)c(Nc2c(C(=O)N3CCC4(CC3)OCc3ccccc34)cnc3c(S(=O)(=O)NC(=O)C4CCC4)cnn23)c1 [a-57, N-{7-(2-Chloro-5-methylphenylamino)-6-[3H-spiro(isobenzofuran-1,4′-piperidine)-1′-carbonyl]pyrazolo[1,5-a]pyrimidin-3-ylsulfonyl}cyclobutanecarboxamide] | > 100% | –
CCNC(=O)NS(=O)(=O)c1cnn2c(Nc3ccc(Cl)c(Cl)c3)c(C(=O)N3CCC(c4ccc(F)cc4)CC3)cnc12 [a-39, 7-(3,4-Dichlorophenylamino)-N-(ethylcarbamoyl)-6-[4-(4-fluorophenyl)piperidine-1-carbonyl]pyrazolo[1,5-a]pyrimidine-3-sulfonamide] | > 100% | –
O=CNS(=O)(=O)c1cnn2c(Nc3cc(Cl)ccc3Cl)c(C(=O)N3CCC(c4ccc(F)cc4)CC3)cnc12 [a-26, N-{7-(2,5-Dichlorophenylamino)-6-[4-(4-fluorophenyl)piperidine-1-carbonyl]pyrazolo[1,5-a]pyrimidin-3-ylsulfonyl}formamide] | > 100% | –
COC(=O)NS(=O)(=O)c1cnn2c(Nc3ccc(F)cc3C)c(C(=O)N3CCC(c4ccccc4)CC3)cnc12 [a-72, Methyl 7-(4-fluoro-2-methylphenylamino)-6-(4-phenylpiperidine-1-carbonyl)pyrazolo[1,5-a]pyrimidin-3-ylsulfonylcarbamate] | 90.7% | –
CCC(=O)NS(=O)(=O)c1cnn2c(Nc3cc(C)ccc3Cl)c(C(=O)N3CC4(C3)CN(c3ccc(F)cc3)C4)cnc12 [a-60, N-{7-(2-Chloro-5-methylphenylamino)-6-[6-(4-fluorophenyl)-2,6-diazaspiro[3,3]heptane-2-carbonyl]pyrazolo[1,5-a]pyrimidin-3-ylsulfonyl}propionamide] | 90.2% | –
CCNC(=O)NS(=O)(=O)c1cnn2c(Nc3ccc(Cl)cc3C)c(C(=O)N3CCC4(CC3)OCc3ccccc34)cnc12 [a-47, 7-(4-Chloro-2-methylphenylamino)-N-(ethylcarbamoyl)-6-[3H-spiro(isobenzofuran-1,4′-piperidine)-1′-carbonyl]pyrazolo[1,5-a]pyrimidine-3-sulfonamide] | > 100% | –
Cc1cc(F)ccc1Nc1c(C(=O)N2CCC(c3ccccc3)CC2)cnc2c(S(=O)(=O)NC(=O)C3CC3)cnn12 [a-1, N-[7-(4-Fluoro-2-methylphenylamino)-6-(4-phenylpiperidine-1-carbonyl)pyrazolo[1,5-a]pyrimidin-3-ylsulfonyl]cyclopropanecarboxamide] | 93.4% | –
Cc1ccc(F)c(Nc2c(C(=O)N3CCC4(CC3)OCc3ccccc34)cnc3c(S(=O)(=O)NC(=O)C4CC4)cnn23)c1 [a-52] | – | >100%
COCC(=O)NS(=O)(=O)c1cnn2c(Nc3ccc(F)cc3C)c(C(=O)N3CCC(c4ccccc4)CC3)cnc12 [a-64, N-[7-(4-Fluoro-2-methylphenylamino)-6-(4-phenylpiperidine-1-carbonyl)pyrazolo[1,5-a]pyrimidin-3-ylsulfonyl]-2-methoxyacetamide] | 94.2% | –
Cc1cc(F)ccc1Nc1c(C(=O)N2CCC(c3ccccc3)CC2)cnc2c(S(=O)(=O)NC(=O)CO)cnn12 [a-65, N-[7-(4-Fluoro-2-methylphenylamino)-6-(4-phenylpiperidine-1-carbonyl)pyrazolo[1,5-a]pyrimidin-3-ylsulfonyl]-2-hydroxyacetamide] | > 100% | –
O=C(NS(=O)(=O)c1cnn2c(Nc3ccccc3Cl)c(C(=O)N3CCC(c4ccc(F)cc4)CC3)cnc12)C1CC1 [a-9, N-{7-(2-Chlorophenylamino)-6-[4-(4-fluorophenyl)piperidine-1-carbonyl]pyrazolo[1,5-a]pyrimidin-3-ylsulfonyl}cyclopropanecarboxamide] | 80.6% | –

The next lines start with results.

inhibition at 0.1 µM | SMILES | Inhibitory rate (%) for an increase in calcium ion concentration
> 100% | CCNC(=O)NS(=O)(=O)c1cnn2c(Nc3cc(F)ccc3Cl)c(C(=O)N3CCC(c4ccc(F)cc4)CC3)cnc12 [a-30, 7-(2-Chloro-5-fluorophenylamino)-N-(ethylcarbamoyl)-6-[4-(4-fluorophenyl)piperidine-1-carbonyl]pyrazolo[1,5-a]pyrimidine-3-sulfonamide] | –
> 100% | Cc1cc(F)ccc1Nc1c(C(=O)N2CCC(c3ccc(F)cc3)CC2)cnc2c(S(=O)(=O)NC3CC3)cnn12 [a-5, N-Cyclopropyl-7-(4-fluoro-2-methylphenylamino)-6-[4-(4-fluorophenyl)piperidine-1-carbonyl]pyrazolo[1,5-a]pyrimidine-3-sulfonamide] | –
> 100% | CCNS(=O)(=O)c1cnn2c(Nc3ccc(F)cc3C)c(C(=O)N3CCC(c4ccc(F)cc4)CC3)cnc12 [a-3, N-Ethyl-7-(4-fluoro-2-methylphenylamino)-6-[4-(4-fluorophenyl)piperidine-1-carbonyl]pyrazolo[1,5-a]pyrimidine-3-sulfonamide] | –
> 100% | CCNS(=O)(=O)c1cnn2c(Nc3ccc(Cl)cc3C)c(C(=O)N3CCC(c4ccc(F)cc4)CC3)cnc12 [a-16, N-Ethyl-7-(4-chloro-2-methylphenylamino)-6-[4-(4-fluorophenyl)piperidine-1-carbonyl]pyrazolo[1,5-a]pyrimidine-3-sulfonamide] | –
98.3% | CCC(=O)NS(=O)(=O)c1cnn2c(Nc3ccc(C)cc3Cl)c(C(=O)N3CCC(c4ccc(F)cc4)CC3)cnc12 [a-18, N-{7-(2-Chloro-4-methylphenylamino)-6-[4-(4-fluorophenyl)piperidine-1-carbonyl]pyrazolo[1,5-a]pyrimidin-3-ylsulfonyl}propionamide] | –
> 100% | CCC(=O)NS(=O)(=O)c1cnn2c(Nc3cc(F)ccc3F)c(C(=O)N3CCC(c4ccc(F)cc4)CC3)cnc12 [a-36, N-{7-(2,5-Difluorophenylamino)-6-[4-(4-fluorophenyl)piperidine-1-carbonyl]pyrazolo[1,5-a]pyrimidin-3-ylsulfonyl}propionamide] | –
87.8% | CCNS(=O)(=O)c1cnn2c(Nc3cc(C)ccc3Cl)c(C(=O)N3CCC(c4ccc(F)cc4)CC3)cnc12 [a-15, N-Ethyl-7-(2-chloro-5-methylphenylamino)-6-[4-(4-fluorophenyl)piperidine-1-carbonyl]pyrazolo[1,5-a]pyrimidine-3-sulfonamide] | –
